From ChEMBL document CHEMBL1201862, “PubChem BioAssay data set” (2004)
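Compound exposure: 48 hours, 5 concentrations, 96-well plates. Abbreviation: GI50, concentration required for 50% inhibition of growth.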 The source made the active and inactive calls. Rule as the data show it: active = GI50 up to about 1.1 µM and inactive = higher.

Columns and labels:
Experiment in all cases: DTP human tumour cell line panel, 48 h
MOLT-4 = tested on: MOLT-4
CCRF-CEM = tested on: CCRF-CEM
OVCAR-3 = tested on: OVCAR-3
Malme-3M = tested on: Malme-3M
NCI-H522 = tested on: NCI-H522
UACC-62 = tested on: UACC-62
NCI-H23 = tested on: NCI-H23
LOX IMVI = tested on: LOX IMVI
HCT-15 = tested on: HCT-15
SK-OV-3 = tested on: SK-OV-3
PC-3 = tested on: PC-3
ACHN = tested on: ACHN
TK-10 = tested on: TK-10
T47D = tested on: T47D
NCI/ADR-RES = tested on: NCI/ADR-RES
COLO 205 = tested on: COLO 205
DU-145 = tested on: DU-145
SK-MEL-2 = tested on: SK-MEL-2
NCI-H226 = tested on: NCI-H226
HL-60 = tested on: HL-60

| Compound | GI50 (MOLT-4) | GI50 (CCRF-CEM) | GI50 (OVCAR-3) | GI50 (Malme-3M) | GI50 (NCI-H522) | GI50 (UACC-62) | GI50 (NCI-H23) | GI50 (LOX IMVI) | GI50 (HCT-15) | GI50 (SK-OV-3) | GI50 (PC-3) | GI50 (ACHN) | GI50 (TK-10) | GI50 (T47D) | GI50 (NCI/ADR-RES) | GI50 (COLO 205) | GI50 (DU-145) | GI50 (SK-MEL-2) | GI50 (NCI-H226) | GI50 (HL-60) |
| --- | --- | --- | --- | --- | --- | --- | --- | --- | --- | --- | --- | --- | --- | --- | --- | --- | --- | --- | --- | --- |
| Cc1[nH]c(/C=C2\C(=O)Nc3ccccc32)c(C)c1CCC(=O)O [ORANTINIB] | 30.1 µM (inactive) | 34.7 µM (inactive) | 22.1 µM (inactive) | 21.2 µM (inactive) | 34.1 µM (inactive) | 32.2 µM (inactive) | 27.7 µM (inactive) | 28.4 µM (inactive) | 31.4 µM | 30.1 µM (inactive) | 35.7 µM (inactive) | 30.5 µM (inactive) | 42.5 µM (inactive) | 34.1 µM (inactive) | 37.3 µM (inactive) | 20.6 µM (inactive) | 31.5 µM (inactive) | 16.8 µM (inactive) |  |  |
| CCN(CC)c1ccc2cc(C(N)=O)/c(=N/c3ccc(F)cc3)oc2c1 | > 100 µM (inactive) | > 100 µM (inactive) | > 100 µM (inactive) | 98.2 µM (inactive) | 11.6 µM (inactive) | 26.4 µM (inactive) | 13.4 µM (inactive) | 46.1 µM (inactive) | 59.8 µM | 58.6 µM (inactive) | 77.1 µM (inactive) | 40.8 µM (inactive) | 10.3 µM (inactive) | 14.2 µM (inactive) | 35.6 µM (inactive) | > 100 µM (inactive) |  | 35.7 µM (inactive) | 36.4 µM (inactive) | > 100 µM (inactive) |
| O=C1c2ccccc2CC12Cc1cc3c(cc1C2=O)CCC3 (centres undefined) | > 100 µM (inactive) | > 100 µM (inactive) | > 100 µM (inactive) | > 100 µM (inactive) | > 100 µM (inactive) |  | > 100 µM (inactive) | > 100 µM (inactive) | > 100 µM | > 100 µM (inactive) | > 100 µM (inactive) | > 100 µM (inactive) | > 100 µM (inactive) | > 100 µM (inactive) | > 100 µM (inactive) |  | > 100 µM (inactive) | > 100 µM (inactive) |  | > 100 µM (inactive) |
| O=C(O)CCNc1ncc2c(n1)-c1ccccc1OC2 | > 100 µM (inactive) | > 100 µM (inactive) | > 100 µM (inactive) | > 100 µM (inactive) | > 100 µM (inactive) | > 100 µM (inactive) | > 100 µM (inactive) | > 100 µM (inactive) | > 100 µM | > 100 µM (inactive) | > 100 µM (inactive) | > 100 µM (inactive) | > 100 µM (inactive) |  | > 100 µM (inactive) | > 100 µM (inactive) | > 100 µM (inactive) | > 100 µM (inactive) | > 100 µM (inactive) | > 100 µM (inactive) |
| O=C(CC(C(=O)c1cccs1)c1cccs1)c1ccsc1 (centres undefined) | 46.2 µM (inactive) | 37.9 µM (inactive) |  | 40.8 µM (inactive) |  | 37.5 µM (inactive) | 35.6 µM (inactive) | 10.2 µM (inactive) | 38.3 µM | 50.1 µM (inactive) | 35.8 µM (inactive) | 67 µM (inactive) | > 100 µM (inactive) | 39.6 µM (inactive) | 32.7 µM (inactive) | 45.3 µM (inactive) | > 100 µM (inactive) | 35.7 µM (inactive) | > 100 µM (inactive) | 29 µM (inactive) |
| CC(C)[Si](OC12CCC(CC1O)CC2C(=O)O)(C(C)C)C(C)C (centres undefined) | 13.2 µM (inactive) | 13.1 µM (inactive) | 14.8 µM (inactive) |  |  | 14 µM (inactive) | 15.5 µM (inactive) |  | 12.4 µM | 13.9 µM (inactive) | 12.5 µM (inactive) | 15.7 µM (inactive) | 3.88 µM (inactive) | 13.9 µM (inactive) | 13.2 µM (inactive) | 21.7 µM (inactive) | 14.2 µM (inactive) | 14.6 µM (inactive) | 12 µM (inactive) | 0.459 µM (active) |
| COc1ccc(NC(=S)C#N)cc1 |  | 54.1 µM (inactive) | > 100 µM (inactive) |  |  | > 100 µM (inactive) | > 100 µM (inactive) | > 100 µM (inactive) | > 100 µM | > 100 µM (inactive) | > 100 µM (inactive) | > 100 µM (inactive) | > 100 µM (inactive) | 85.7 µM (inactive) | > 100 µM (inactive) | > 100 µM (inactive) | > 100 µM (inactive) | > 100 µM (inactive) | > 100 µM (inactive) | 53 µM (inactive) |
| O=C(CCl)N1CCN(c2ccccc2)CC1 | 27.2 µM (inactive) | 26.7 µM (inactive) |  | 23.6 µM (inactive) |  |  | 18.1 µM (inactive) |  | 20.1 µM | 70.1 µM (inactive) | 40.9 µM (inactive) | 24.4 µM (inactive) | 20 µM (inactive) | 21.9 µM (inactive) | 44.1 µM (inactive) | 21.5 µM (inactive) | > 100 µM (inactive) |  |  | 20 µM (inactive) |
